Reference: patent US11767310B2, “Nicotinamide RIPK1 inhibitors” (AbbVie Inc., priority 2021, dated 2023)
Where two headings read alike, the source gives them in different places.

Legend:
Assay in all cases: Kinase binding screen
Conditions in all cases: read-out: Percent Control at 100 nM Compound Concentration
[1] = target: ABL1(F317L)-nonphosphorylated (Homo sapiens (Human), UniProt P00519, F317L)
CAMK1G = CAMK1G (Homo sapiens (Human), UniProt Q96NX5)
CDC2L1 = CDC2L1 (Homo sapiens (Human), UniProt P21127)
CLK3 = CLK3 (Homo sapiens (Human), UniProt P49761)
CSNK1A1 = CSNK1A1 (Homo sapiens (Human), UniProt P48729)
[2] = target: EGFR(L747-E749del, A750P) (Homo sapiens (Human), UniProt P00533, A750P/DEL747-749)
EGFR(T790M) = EGFR(T790M) (Homo sapiens (Human), UniProt P00533, T790M)
EPHA5 = EPHA5 (Homo sapiens (Human), UniProt P54756)
EPHB4 = EPHB4 (Homo sapiens (Human), UniProt P54760)
FLT1 = FLT1 (Homo sapiens (Human), UniProt P17948)
[3] = target: JAK3(JH1domain-catalytic) (Homo sapiens (Human), UniProt P52333)
MAP3K4 = MAP3K4 (Homo sapiens (Human), UniProt Q9Y6R4)
MAP4K5 = MAP4K5 (Homo sapiens (Human), UniProt Q9Y4K4)
MARK1 = MARK1 (Homo sapiens (Human), UniProt Q9P0L2)
MET = MET (Homo sapiens (Human), UniProt P08581)
MST1R = MST1R (Homo sapiens (Human), UniProt Q04912)
NEK2 = NEK2 (Homo sapiens (Human), UniProt P51955)
PAK7 = PAK7 (Homo sapiens (Human), UniProt Q9P286)
PCTK2 = PCTK2 (Homo sapiens (Human), UniProt Q00537)
PCTK3 = PCTK3 (Homo sapiens (Human), UniProt Q07002)
PRKD3 = PRKD3 (Homo sapiens (Human), UniProt O94806)
QSK = QSK (Homo sapiens (Human), UniProt Q9Y2K2)
ROCK2 = ROCK2 (Homo sapiens (Human), UniProt O75116)
[4] = target: RSK2(Kin.Dom.1-N-terminal) (Homo sapiens (Human), UniProt P51812)
TRKB = TRKB (Homo sapiens (Human), UniProt Q16620)
ULK1 = ULK1 (Homo sapiens (Human), UniProt O75385)
WNK3 = WNK3 (Homo sapiens (Human), UniProt Q9BYP7)
YANK2 = YANK2 (Homo sapiens (Human), UniProt Q9NY57)

Measured: remaining activity at 0.1 µM

Sequence of MST1R (Q04912 25-1400): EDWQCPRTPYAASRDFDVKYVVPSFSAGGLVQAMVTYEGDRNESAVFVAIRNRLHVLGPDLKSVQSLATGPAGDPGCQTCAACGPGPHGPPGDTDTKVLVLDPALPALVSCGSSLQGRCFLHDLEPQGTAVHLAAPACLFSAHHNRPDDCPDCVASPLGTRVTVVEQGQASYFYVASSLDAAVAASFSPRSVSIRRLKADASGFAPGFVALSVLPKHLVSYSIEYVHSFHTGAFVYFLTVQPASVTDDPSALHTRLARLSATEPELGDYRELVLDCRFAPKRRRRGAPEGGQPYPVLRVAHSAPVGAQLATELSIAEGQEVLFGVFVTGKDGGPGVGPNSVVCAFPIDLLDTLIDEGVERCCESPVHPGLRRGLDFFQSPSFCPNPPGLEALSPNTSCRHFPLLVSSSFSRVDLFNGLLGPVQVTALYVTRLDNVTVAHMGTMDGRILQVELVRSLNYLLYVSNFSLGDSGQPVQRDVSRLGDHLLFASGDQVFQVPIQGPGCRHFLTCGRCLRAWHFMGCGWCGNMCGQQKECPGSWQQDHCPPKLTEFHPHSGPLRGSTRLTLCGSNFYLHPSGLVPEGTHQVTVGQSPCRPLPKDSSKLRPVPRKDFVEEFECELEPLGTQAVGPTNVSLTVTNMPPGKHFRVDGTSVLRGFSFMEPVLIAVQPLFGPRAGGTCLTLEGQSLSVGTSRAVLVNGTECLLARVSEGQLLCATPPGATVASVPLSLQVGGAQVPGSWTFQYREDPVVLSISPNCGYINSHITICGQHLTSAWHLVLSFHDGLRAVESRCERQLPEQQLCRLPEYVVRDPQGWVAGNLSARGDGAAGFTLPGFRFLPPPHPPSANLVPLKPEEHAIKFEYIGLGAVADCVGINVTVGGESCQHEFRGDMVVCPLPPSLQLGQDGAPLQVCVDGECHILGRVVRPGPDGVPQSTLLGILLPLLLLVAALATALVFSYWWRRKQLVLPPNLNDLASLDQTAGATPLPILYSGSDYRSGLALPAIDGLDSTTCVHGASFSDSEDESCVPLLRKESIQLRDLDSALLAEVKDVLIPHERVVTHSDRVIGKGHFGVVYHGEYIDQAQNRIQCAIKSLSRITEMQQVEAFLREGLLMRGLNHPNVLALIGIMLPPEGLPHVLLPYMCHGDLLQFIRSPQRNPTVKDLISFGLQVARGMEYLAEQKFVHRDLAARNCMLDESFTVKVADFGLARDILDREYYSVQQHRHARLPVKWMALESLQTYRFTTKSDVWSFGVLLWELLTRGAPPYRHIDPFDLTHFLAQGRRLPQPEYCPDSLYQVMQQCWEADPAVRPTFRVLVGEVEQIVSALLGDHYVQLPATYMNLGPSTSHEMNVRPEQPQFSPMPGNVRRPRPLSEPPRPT
Sequence of MAP3K4 (Q9Y6R4 whole entry): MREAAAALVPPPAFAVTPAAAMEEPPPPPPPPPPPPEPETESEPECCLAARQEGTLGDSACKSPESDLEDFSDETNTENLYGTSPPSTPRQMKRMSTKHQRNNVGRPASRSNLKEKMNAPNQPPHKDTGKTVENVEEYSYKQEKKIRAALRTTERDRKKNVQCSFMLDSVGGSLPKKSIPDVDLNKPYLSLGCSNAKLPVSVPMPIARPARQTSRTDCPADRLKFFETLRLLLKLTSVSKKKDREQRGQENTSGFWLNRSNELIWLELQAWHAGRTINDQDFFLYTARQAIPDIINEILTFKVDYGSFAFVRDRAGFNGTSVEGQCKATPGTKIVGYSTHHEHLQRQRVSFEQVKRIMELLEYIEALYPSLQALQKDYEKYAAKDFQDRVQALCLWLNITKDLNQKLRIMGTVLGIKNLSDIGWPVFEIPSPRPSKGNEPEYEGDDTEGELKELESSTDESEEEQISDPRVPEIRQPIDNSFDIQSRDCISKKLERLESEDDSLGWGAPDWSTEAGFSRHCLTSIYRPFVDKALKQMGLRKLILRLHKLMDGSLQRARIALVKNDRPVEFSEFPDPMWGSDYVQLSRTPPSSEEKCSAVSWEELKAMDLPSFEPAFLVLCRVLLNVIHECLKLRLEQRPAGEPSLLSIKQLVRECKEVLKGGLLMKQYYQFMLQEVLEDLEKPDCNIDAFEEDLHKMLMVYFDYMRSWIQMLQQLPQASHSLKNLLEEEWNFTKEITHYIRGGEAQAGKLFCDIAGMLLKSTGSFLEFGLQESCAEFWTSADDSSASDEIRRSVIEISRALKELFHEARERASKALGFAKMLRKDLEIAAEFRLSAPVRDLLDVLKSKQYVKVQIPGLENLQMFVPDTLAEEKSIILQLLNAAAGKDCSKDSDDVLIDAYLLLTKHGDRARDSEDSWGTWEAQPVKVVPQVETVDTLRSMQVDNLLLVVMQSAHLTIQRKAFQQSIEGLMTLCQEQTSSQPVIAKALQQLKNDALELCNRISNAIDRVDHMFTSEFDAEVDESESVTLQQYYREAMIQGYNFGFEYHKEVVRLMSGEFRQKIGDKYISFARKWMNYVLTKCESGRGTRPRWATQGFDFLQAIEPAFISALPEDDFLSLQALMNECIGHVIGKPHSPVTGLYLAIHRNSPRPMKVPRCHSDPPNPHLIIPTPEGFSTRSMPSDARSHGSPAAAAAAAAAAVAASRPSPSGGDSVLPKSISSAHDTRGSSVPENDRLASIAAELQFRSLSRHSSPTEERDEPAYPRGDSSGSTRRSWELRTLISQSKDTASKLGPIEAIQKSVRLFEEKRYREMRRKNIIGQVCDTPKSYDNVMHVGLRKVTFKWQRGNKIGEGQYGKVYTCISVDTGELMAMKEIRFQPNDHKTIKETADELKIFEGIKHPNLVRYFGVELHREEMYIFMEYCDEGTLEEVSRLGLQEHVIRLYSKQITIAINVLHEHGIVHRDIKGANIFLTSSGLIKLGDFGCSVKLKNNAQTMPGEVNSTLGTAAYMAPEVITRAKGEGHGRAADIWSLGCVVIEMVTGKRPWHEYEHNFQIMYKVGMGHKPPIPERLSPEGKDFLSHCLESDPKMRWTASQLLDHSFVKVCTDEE
Sequence of PCTK3 (Q07002 whole entry): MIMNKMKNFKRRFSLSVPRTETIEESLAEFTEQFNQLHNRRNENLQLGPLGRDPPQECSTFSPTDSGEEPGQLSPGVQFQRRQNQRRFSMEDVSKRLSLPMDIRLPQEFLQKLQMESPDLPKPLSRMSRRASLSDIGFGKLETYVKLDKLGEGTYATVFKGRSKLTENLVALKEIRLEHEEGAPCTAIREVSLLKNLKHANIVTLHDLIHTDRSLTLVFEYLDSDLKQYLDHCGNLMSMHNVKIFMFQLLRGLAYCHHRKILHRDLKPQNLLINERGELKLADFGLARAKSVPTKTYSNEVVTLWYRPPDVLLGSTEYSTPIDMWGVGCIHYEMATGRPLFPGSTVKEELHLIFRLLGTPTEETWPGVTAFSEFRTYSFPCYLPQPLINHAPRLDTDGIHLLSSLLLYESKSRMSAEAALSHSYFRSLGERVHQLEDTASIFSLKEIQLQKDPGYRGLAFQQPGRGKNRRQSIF
Sequence of EGFR(L747-E749del, A750P) (P00533 other isoform, or with tags, fused parts or gaps A750P/del L747-E749): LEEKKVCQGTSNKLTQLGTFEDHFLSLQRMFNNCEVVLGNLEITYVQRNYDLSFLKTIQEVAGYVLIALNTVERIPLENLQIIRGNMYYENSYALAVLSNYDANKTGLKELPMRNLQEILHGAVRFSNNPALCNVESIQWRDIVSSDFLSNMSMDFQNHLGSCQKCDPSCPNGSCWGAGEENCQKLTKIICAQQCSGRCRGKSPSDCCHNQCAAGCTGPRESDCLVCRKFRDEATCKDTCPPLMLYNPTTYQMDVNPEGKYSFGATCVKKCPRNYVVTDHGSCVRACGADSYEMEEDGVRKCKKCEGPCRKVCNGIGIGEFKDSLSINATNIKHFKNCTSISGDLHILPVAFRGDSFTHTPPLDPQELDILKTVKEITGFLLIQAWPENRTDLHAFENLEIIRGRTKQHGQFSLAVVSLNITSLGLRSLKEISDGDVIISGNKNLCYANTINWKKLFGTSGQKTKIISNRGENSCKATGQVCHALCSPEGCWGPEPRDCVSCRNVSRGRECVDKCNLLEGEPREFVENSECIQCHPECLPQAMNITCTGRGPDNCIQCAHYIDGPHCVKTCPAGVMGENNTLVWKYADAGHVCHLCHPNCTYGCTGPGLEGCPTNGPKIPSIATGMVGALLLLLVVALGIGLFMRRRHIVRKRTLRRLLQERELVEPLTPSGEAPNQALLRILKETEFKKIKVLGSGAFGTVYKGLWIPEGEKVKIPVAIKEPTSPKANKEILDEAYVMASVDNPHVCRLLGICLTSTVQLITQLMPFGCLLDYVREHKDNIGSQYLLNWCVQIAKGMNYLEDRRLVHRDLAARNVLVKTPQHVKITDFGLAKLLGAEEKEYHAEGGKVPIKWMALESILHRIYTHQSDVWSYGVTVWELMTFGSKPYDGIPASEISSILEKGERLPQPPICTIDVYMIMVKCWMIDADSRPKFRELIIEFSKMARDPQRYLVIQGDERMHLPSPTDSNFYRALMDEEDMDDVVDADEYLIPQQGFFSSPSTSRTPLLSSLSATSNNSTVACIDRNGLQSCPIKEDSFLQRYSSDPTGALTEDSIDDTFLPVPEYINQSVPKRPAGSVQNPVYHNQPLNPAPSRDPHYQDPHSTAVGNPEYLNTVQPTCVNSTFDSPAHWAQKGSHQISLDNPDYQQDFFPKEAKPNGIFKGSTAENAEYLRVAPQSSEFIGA
Sequence of NEK2 (P51955 whole entry): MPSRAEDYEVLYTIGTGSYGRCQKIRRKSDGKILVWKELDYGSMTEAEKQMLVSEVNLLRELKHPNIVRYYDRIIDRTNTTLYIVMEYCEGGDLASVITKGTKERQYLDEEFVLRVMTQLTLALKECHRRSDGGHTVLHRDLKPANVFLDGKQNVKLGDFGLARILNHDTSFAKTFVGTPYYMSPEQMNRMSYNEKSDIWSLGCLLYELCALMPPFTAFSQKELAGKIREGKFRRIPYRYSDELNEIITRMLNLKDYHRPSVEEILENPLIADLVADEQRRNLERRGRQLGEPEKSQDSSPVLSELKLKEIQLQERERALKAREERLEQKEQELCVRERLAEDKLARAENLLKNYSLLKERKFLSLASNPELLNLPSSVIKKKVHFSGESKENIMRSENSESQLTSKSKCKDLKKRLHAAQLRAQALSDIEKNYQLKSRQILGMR

CN(C[C@@H](O)Cc1ccccc1)C(=O)c1cncc(C#Cc2cnn(C(F)F)c2)c1 [Example 2, (S)-5-((1-(difluoromethyl)-1H-pyrazol-4-yl)ethynyl)-N-(2-hydroxy-3-phenylpropyl)-N-methylnicotinamide]
97%: CLK3; CLK3
100%: [1]; ABL1(F317L)-nonphosphorylated | CDC2L1; CDC2L1 | CSNK1A1; CSNK1A1 | [2]; EGFR(L747-E749del, A750P) | EGFR(T790M); EGFR(T790M) | EPHA5; EPHA5 | EPHB4; EPHB4 | FLT1; FLT1 | [3]; JAK3(JH1domain-catalytic) | MAP3K4; MAP3K4 | MARK1; MARK1 | MET; MET | NEK2; NEK2 | PAK7; PAK7 | PCTK2; PCTK2 | PCTK3; PCTK3 | PRKD3; PRKD3 | ROCK2; ROCK2 | [4]; RSK2(Kin.Dom.1-N-terminal) | TRKB; TRKB | ULK1; ULK1 | WNK3; WNK3 | YANK2; YANK2
93%: CAMK1G; CAMK1G
87%: MAP4K5; MAP4K5
98%: MST1R; MST1R
88%: QSK; QSK

CN(C[C@H](Cc1ccccc1)OP(=O)(O)O)C(=O)c1cncc(C#Cc2cnn(C(F)F)c2)c1 [Example 19, (S)-1-(5-((1-(difluoromethyl)-1H-pyrazol-4-yl)ethynyl)-N-methylnicotinamido)-3-phenylpropan-2-yl dihydrogen phosphate]
95%: MAP4K5 | YANK2
93%: CLK3
100%: [1] | CAMK1G | CDC2L1 | EGFR(T790M) | EPHA5 | EPHB4 | FLT1 | [3] | MAP3K4 | MET | NEK2 | PAK7 | PCTK2 | PCTK3 | PRKD3 | ROCK2 | ULK1 | WNK3
94%: [4] | TRKB
92%: CSNK1A1 | MST1R
85%: QSK
96%: MARK1
84%: [2]
